In experiment [1] the test system is MYB mRNA. In words: Splicing RT-qPCR assay, MYB canonical (CJ) and alternative (AJ) junction mRNA. In kind it is cell-based. As to conditions: Homo sapiens, A673 or K562 cells, 24 hours; for pIC50: decrease in canonical junction mRNA; for AC50: increase in alternative junction mRNA. The method in brief:
(§1)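 A673 (DMEM/10% FBS, plated 24 h before dosing) or K562 (IMDM/10% FBS) cells treated 24 h at 37 °C with 11-point 3-fold dilutions, top final 10 uM, DMSO ≤0.25%. Lysates analysed by one-step RT-qPCR for CJ and AJ isoforms, normalized to GAPDH/GUSB (K562) or PPIA (A673).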

In experiment [2] the test system is HTT mRNA. In words: Splicing RT-qPCR assay, HTT canonical (CJ) and alternative (AJ) junction mRNA. In kind it is cell-based. To be noted: Homo sapiens, A673 or K562 cells, 24 hours; for pIC50: decrease in canonical junction mRNA; for AC50: increase in alternative junction mRNA. Summed up: as §1

Structures are written as SMILES. pIC50: −log10 of the molar value.

With `CCOc1cnc2c(N3C[C@@H](C)N[C@@H](C)C3)ccc(C(=O)Nc3cc(F)c4nc(C)cn4c3)c2n1` [Compound 296], in experiment [1], the pIC50 is > 7.00 and the AC50 was < 100 nM. Besides, in experiment [2], the pIC50 is 6.00 to 7.00 and the AC50 was in the range of 100 to 1000 nM.
Taken in the same sequence, the figures for `COc1nc(NC(=O)c2ccc(N3C[C@@H](C)N[C@@H](C)C3)c3nccnc23)cc2oc(C)nc12` [Compound 298] were 6.00 to 7.00, 100 to 1000 nM, < 5.00 and > 10000 nM.
On the same counts, the results for `COc1ncc2c(N3C[C@@H](C)N[C@@H](C)C3)ccc(C(=O)Nc3cc(F)c4nc(C)cn4c3)c2n1` [Compound 300] are > 7.00, < 100 nM, 6.00 to 7.00 and 100 to 1000 nM.
Taken in the same sequence, the figures for `Cc1cn2cc(NC(=O)c3ccc(N4C[C@@H](C)N[C@@H](C)C4)c4cncnc34)cc(F)c2n1` [Compound 302] were 6.00 to 7.00, 100 to 1000 nM, 5.00 to 6.00 and 1000 to 10000 nM.
Turning to `Cc1cn2cc(NC(=O)c3ccc(N4C[C@@H](C)N[C@@H](C)C4)c4nccnc34)cc(Cl)c2n1` [Compound 304], in experiment [1], the pIC50 is > 7.00 and the AC50 is < 100 nM. Moreover, in experiment [2], the pIC50 is 5.00 to 6.00 and the AC50 is > 10000 nM.
In experiment [1], `C[C@@H]1CN(c2ccc(C(=O)Nc3cc(F)c4nc(Cl)cn4c3)c3nccnc23)C[C@H](C)N1` [Compound 306] gave a pIC50 of 6.00 to 7.00 and an AC50 of 100 to 1000 nM. In experiment [2], the pIC50 was < 5.00 and the AC50 is > 10000 nM.
Taken in the same sequence, the figures for `CNc1nc(NC(=O)c2ccc(N3C[C@@H](C)N[C@@H](C)C3)c3nccnc23)cn2cc(C)nc12` [Compound 308] were 5.00 to 6.00, 1000 to 10000 nM, < 5.00 and > 10000 nM.
Taken in the same sequence, the figures for `Cc1c(O)c(NC(=O)c2ccc(N3C[C@@H](C)N[C@@H](C)C3)c3nccnc23)cc2cn(C)nc12` [Compound 310] were 6.00 to 7.00, 100 to 1000 nM, < 5.00 and > 10000 nM.
As for `Cc1cn2cc(NC(=O)c3ccc(N4C[C@@H](C)N[C@H](C)C4)c4nccnc34)cc(F)c2n1` [Compound 312], in experiment [1], the pIC50 is > 7.00 and the AC50 was < 100 nM. In experiment [2], this compound had a pIC50 of 5.00 to 6.00 and an AC50 of 1000 to 10000 nM.
On the same counts, the results for `Cc1cn2cc(NC(=O)c3ccc(N4C[C@H](C)N[C@@H](C)C4)c4nccnc34)cc(F)c2n1` [Compound 313] are > 7.00, < 100 nM, 5.00 to 6.00 and 1000 to 10000 nM.
Regarding `Cc1cn2cc(NC(=O)c3ccc(N4CC[C@@H](N)C4)c4nccnc34)cc(F)c2n1` [Compound 315], in experiment [1], the pIC50 is 6.00 to 7.00 and the AC50 was in the range of 1000 to 10000 nM. In experiment [2], the pIC50 was < 5.00 and the AC50 lay in the range of 1000 to 10000 nM.
On to `Cc1cn2cc(NC(=O)c3ccc(NC4CCNC4)c4nccnc34)cc(F)c2n1` (stereo not drawn) [Compound 316], for which, in experiment [1], the pIC50 was 6.00 to 7.00 and the AC50 is 1000 to 10000 nM. Also, in experiment [2], the pIC50 is < 5.00 and the AC50 lay within 1000 to 10000 nM.
Consider `C[C@@H]1CN(c2ccc(C(=O)Nc3cc(F)c4nn(C)cc4c3)c3nccnc23)C[C@@H](C)N1` [Compound 335], for which the pIC50 in experiment [1] is 6.00 to 7.00; in experiment [2], 5.00 to 6.00. The AC50 is 100 to 1000 nM in experiment [1] and > 10000 nM in experiment [2].
On the same counts, the results for `Cc1cn2cc(NC(=O)c3ccc(N4CCC5(CCN5)C4)c4nccnc34)cc(F)c2n1` (stereo not drawn) [Compound 339] are 6.00 to 7.00, 5.00 to 6.00, 1000 to 10000 nM and 1000 to 10000 nM.
Taken in the same sequence, the figures for `Cc1cn2cc(NC(=O)c3ccc(N4C[C@@H](C)N[C@@H](C)C4)c4cccnc34)cc(F)c2n1` [Compound 340] were 6.00 to 7.00, 5.00 to 6.00, 100 to 1000 nM and 1000 to 10000 nM.
Consider `Cc1cn2cc(NC(=O)c3ccc(N4CCNC5(CC5)C4)c4cccnc34)cc(F)c2n1` [Compound 341], for which, in experiment [1], the pIC50 is 6.00 to 7.00 and the AC50 fell in the range of 100 to 1000 nM. In experiment [2], this compound had a pIC50 of 5.00 to 6.00 and an AC50 of 1000 to 10000 nM.
`COc1nc2c(F)cc(NC(=O)c3ccc(N4C[C@@H](C)N[C@@H](C)C4)c4nccnc34)cc2o1` [Compound 342]: in experiment [1], the pIC50 was < 5.00 and the AC50 is > 10000 nM. Besides, in experiment [2], the pIC50 is < 5.00 and the AC50 was > 10000 nM.
In experiment [1], `C[C@@H]1CN(c2ccc(C(=O)Nc3cc(F)c4cnccc4c3)c3nccnc23)C[C@H](C)N1` [Compound 343] gave a pIC50 of 5.00 to 6.00 and an AC50 of 1000 to 10000 nM. In experiment [2], this compound had a pIC50 of 5.00 to 6.00 and an AC50 of 1000 to 10000 nM.
Take `C[C@@H]1CN(c2ccc(C(=O)Nc3cc(F)c4ncccc4c3)c3nccnc23)C[C@H](C)N1` [Compound 344]: in experiment [1], the pIC50 is 5.00 to 6.00 and the AC50 is > 10000 nM. Besides, in experiment [2], the pIC50 is < 5.00 and the AC50 is > 10000 nM.
For the compound `Cc1cn2cc(NC(=O)c3ccc(N4CCNCC4)c4nncnc34)cc(F)c2n1` [Compound 345], the pIC50 in experiment [1] is 6.00 to 7.00; in experiment [2], 5.00 to 6.00. Further, the concentration at half-maximal activity (AC50) in experiment [1] was in the range of 100 to 1000 nM; in experiment [2] it was 1000 to 10000 nM.
On the same counts, the results for `Cc1cn2cc(NC(=O)c3ccc(N4C[C@@H](C)N[C@@H](C)C4)c4ncc(OC5CC5)nc34)cc(F)c2n1` [Compound 351] are 6.00 to 7.00, 5.00 to 6.00, 100 to 1000 nM and > 10000 nM.
In experiment [1], `COc1nc(NC(=O)c2ccc(N3C[C@@H](C)N[C@@H](C)C3)c3nccnc23)cc2cn(C)nc12` [Compound 352] gave a pIC50 of 6.00 to 7.00 and an AC50 of 100 to 1000 nM. In experiment [2], the pIC50 is 5.00 to 6.00 and the AC50 was in the range of 1000 to 10000 nM.
On the same counts, the results for `Cc1ccc2cc(NC(=O)c3ccc(N4C[C@@H](C)N[C@@H](C)C4)c4nccnc34)cc(F)c2n1` [Compound 353] are < 5.00, > 10000 nM, < 5.00 and > 10000 nM.
Taken in the same sequence, the figures for `Cc1cn2nc(NC(=O)c3ccc(N4C[C@@H](C)N[C@@H](C)C4)c4nccnc34)cc2c(C)n1` [Compound 354] were 6.00 to 7.00, 100 to 1000 nM, 6.00 to 7.00 and 100 to 1000 nM.
For `Cc1cn2cc(NC(=O)c3ccc(N4C[C@@H](C)N(O)[C@@H](C)C4)c4nccnc34)cc(F)c2n1` [Compound 355], the figures for the pIC50 in experiment [1] and in experiment [2] were 6.00 to 7.00 and < 5.00, respectively. The AC50 fell in the range of 100 to 1000 nM in experiment [1] and 1000 to 10000 nM in experiment [2].
On the same counts, the results for `Cc1cn2cc(NC(=O)c3ccc(N4CCC(N)(CF)CC4)c4nccnc34)cc(F)c2n1` [Compound 356] are 5.00 to 6.00, 5.00 to 6.00, 1000 to 10000 nM and > 10000 nM.
In the case of `COc1cn2cc(NC(=O)c3ccc(N4C[C@@H](C)N[C@@H](C)C4)c4nccnc34)cc(F)c2n1` [Compound 357], the pIC50 in experiment [1] and in experiment [2] was < 5.00 each time. Besides, the AC50 in experiment [1] was 1000 to 10000 nM; in experiment [2], > 10000 nM.
As for `Cc1cn2cc(NC(=O)c3ccc(N4C[C@@H](C)N[C@@H](C)C4)c4ncccc34)cc(F)c2n1` [Compound 358], in experiment [1], the pIC50 is < 5.00 and the AC50 was > 10000 nM. Moreover, in experiment [2], the pIC50 was < 5.00 and the AC50 is > 10000 nM.
In experiment [1], `Cc1cn2cc(NC(=O)c3ccc(N4C[C@@H](C)N[C@@H](C)C4)c4nccnc34)nc2c(C)n1` [Compound 359] showed a pIC50 of 6.00 to 7.00 and an AC50 of 100 to 1000 nM. In addition, in experiment [2], the pIC50 was < 5.00 and the AC50 is > 10000 nM.
For `C[C@@H]1CN(c2ccc(C(=O)Nc3cc(F)c4nc(O)cn4c3)c3nccnc23)C[C@H](C)N1` [Compound 360], in experiment [1], the pIC50 is < 5.00 and the AC50 was > 10000 nM. Besides, in experiment [2], the pIC50 is < 5.00 and the AC50 was > 10000 nM.
In experiment [1], `Cc1cn2cc(NC(=O)c3ccc(N4CCN[C@H](CO)C4)c4nccnc34)cc(F)c2n1` [Compound 362] had a pIC50 of 6.00 to 7.00 and an AC50 of 100 to 1000 nM. For the same compound, in experiment [2], the pIC50 was 5.00 to 6.00 and the AC50 was in the range of 1000 to 10000 nM.
Taken in the same sequence, the figures for `Cc1cn2cc(NC(=O)c3ccc(N4CCNC5(CCC5)C4)c4nccnc34)cc(F)c2n1` [Compound 363] were 6.00 to 7.00, 100 to 1000 nM, 5.00 to 6.00 and 1000 to 10000 nM.
In experiment [1], `Cc1cn2cc(NC(=O)c3ccc(N4CCN(C)C5(CC5)C4)c4nccnc34)cc(F)c2n1` [Compound 364] showed a pIC50 of 6.00 to 7.00 and an AC50 of 100 to 1000 nM. Further, in experiment [2], the pIC50 is 6.00 to 7.00 and the AC50 was in the range of 1000 to 10000 nM.
In experiment [1], `CCN1CCN(c2ccc(C(=O)Nc3cc(F)c4nc(C)cn4c3)c3nccnc23)CC12CC2` [Compound 365] had a pIC50 of 6.00 to 7.00 and an AC50 of 100 to 1000 nM. In experiment [2], the pIC50 was 6.00 to 7.00 and the concentration at half-maximal activity (AC50) lay in the range of 1000 to 10000 nM.
For the compound `Cc1cn2cc(NC(=O)c3ccc(N4CCN[C@H](CF)C4)c4nccnc34)cc(F)c2n1` [Compound 366], in experiment [1], the pIC50 is 6.00 to 7.00 and the AC50 was 100 to 1000 nM. For the same compound, in experiment [2], the pIC50 was 5.00 to 6.00 and the AC50 lay within 1000 to 10000 nM.
As to `Cc1cn2cc(NC(=O)c3ccc(N4CCN[C@@H](CF)C4)c4nccnc34)cc(F)c2n1` [Compound 367], in experiment [1], the pIC50 is 5.00 to 6.00 and the AC50 lay in the range of 1000 to 10000 nM. In experiment [2], the negative logarithm of the IC50 (pIC50) is 5.00 to 6.00 and the AC50 lay in the range of 1000 to 10000 nM.

The record behind these values is US20240409536A1, “COMPOUNDS AND METHODS FOR MODULATING SPLICING” (REMIX THERAPEUTICS INC., priority 2021, published 2024).
